From ChEMBL document CHEMBL5236585, “Design, synthesis and antifungal activities of novel triazole derivatives with selenium-containing hydrophobic side chains” (Bioorg Med Chem Lett, 2022)
In brackets after ≈: the same amount, converted by molar mass.

Key:
Candida albicans [1] = assay: Antifungal activity against Candida albicans ATCC SC5314 assessed as inhibition of fungal growth by microdilution method; assay type: functional
Cryptococcus neoformans = assay: Antifungal activity against Cryptococcus neoformans CGMCC 2.3161 assessed as inhibition of fungal growth by microdilution method; assay type: functional
Aspergillus fumigatus = assay: Antifungal activity against Aspergillus fumigatus CGMCC 3.7795 assessed as inhibition of fungal growth by microdilution method; assay type: functional
Candida albicans [2] = assay: Antifungal activity against Candida albicans CPCC 400616 assessed as inhibition of fungal growth by microdilution method; assay type: functional
Nakaseomyces glabratus = assay: Antifungal activity against clinical isolate Candida glabrata assessed as inhibition of fungal growth by microdilution method; assay type: functional
Candida parapsilosis = assay: Antifungal activity against Candida parapsilosis 22019 assessed as inhibition of fungal growth by microdilution method; assay type: functional; conditions: Lodderomyces parapsilosis
Candida tropicalis = assay: Antifungal activity against Candida tropicalis CGMCC 2.3739 assessed as inhibition of fungal growth by microdilution method; assay type: functional
Pichia kudriavzevii = assay: Antifungal activity against Candida krusei AS 2.1045 assessed as inhibition of fungal growth by microdilution method; assay type: functional
MDA-MB-231 = assay: Cytotoxicity against human MDA-MB-231 cells assessed as inhibition of cell growth by MTT assay; assay type: functional, cell-based
[3] = biological target: T1, Lanosterol 14-alpha demethylase (Candida albicans (strain SC5314 / ATCC MYA-2876) (Yeast), UniProt P10613); assay: Inhibition of CYP51 in Candida albicans SC5314 assessed as eburicol level at 1 ug/ml by GC-MS analysis (reference value: 0 %); design: scale not given: the % may be the effect or the level left; conditions: at 1 µg/mL
PC-3 = assay: Cytotoxicity against human PC-3 cells assessed as inhibition of cell growth by MTT assay; assay type: functional, cell-based
[4] = biological target: T1, Lanosterol 14-alpha demethylase; assay: Inhibition of CYP51 in Candida albicans SC5314 assessed as lanosterol level at 8 ug/ml by GC-MS analysis (reference value: 1.7 %); design: scale not given: the % may be the effect or the level left; conditions: at 8 µg/mL
[5] = biological target: T1, Lanosterol 14-alpha demethylase; assay: Inhibition of CYP51 in Candida albicans SC5314 assessed as eburicol level at 8 ug/ml by GC-MS analysis (reference value: 0 %); design: scale not given: the % may be the effect or the level left; conditions: at 8 µg/mL
[6] = biological target: T1, Lanosterol 14-alpha demethylase; assay: Inhibition of CYP51 in Candida albicans SC5314 assessed as eburicol level at 2 ug/ml by GC-MS analysis (reference value: 0 %); design: scale not given: the % may be the effect or the level left; conditions: at 2 µg/mL
[7] = biological target: T1, Lanosterol 14-alpha demethylase; assay: Inhibition of CYP51 in Candida albicans SC5314 assessed as ergosterol level at 4 ug/ml by GC-MS analysis (reference value: 98.3 %); design: scale not given: the % may be the effect or the level left; conditions: at 4 µg/mL
[8] = biological target: T1, Lanosterol 14-alpha demethylase; assay: Inhibition of CYP51 in Candida albicans SC5314 assessed as eburicol level at 4 ug/ml by GC-MS analysis (reference value: 0 %); design: scale not given: the % may be the effect or the level left; conditions: at 4 µg/mL
[9] = biological target: T1, Lanosterol 14-alpha demethylase; assay: Inhibition of CYP51 in Candida albicans SC5314 assessed as obtusifoliol level at 1 ug/ml by GC-MS analysis (reference value: 0 %); design: scale not given: the % may be the effect or the level left; conditions: at 1 µg/mL
[10] = biological target: T1, Lanosterol 14-alpha demethylase; assay: Inhibition of CYP51 in Candida albicans SC5314 assessed as obtusifoliol level at 8 ug/ml by GC-MS analysis (reference value: 0 %); design: scale not given: the % may be the effect or the level left; conditions: at 8 µg/mL
[11] = biological target: T1, Lanosterol 14-alpha demethylase; assay: Inhibition of CYP51 in Candida albicans SC5314 assessed as ergosterol level at 2 ug/ml by GC-MS analysis (reference value: 98.3 %); design: scale not given: the % may be the effect or the level left; conditions: at 2 µg/mL
HL-60 = assay: Cytotoxicity against human HL-60 cells assessed as inhibition of cell growth by MTT assay; assay type: functional, cell-based
[12] = biological target: T1, Lanosterol 14-alpha demethylase; assay: Inhibition of CYP51 in Candida albicans SC5314 assessed as ergosterol level at 1 ug/ml by GC-MS analysis (reference value: 98.3 %); design: scale not given: the % may be the effect or the level left; conditions: at 1 µg/mL
[13] = biological target: T1, Lanosterol 14-alpha demethylase; assay: Inhibition of CYP51 in Candida albicans SC5314 assessed as lanosterol level at 2 ug/ml by GC-MS analysis (reference value: 1.7 %); design: scale not given: the % may be the effect or the level left; conditions: at 2 µg/mL
[14] = biological target: T1, Lanosterol 14-alpha demethylase; assay: Inhibition of CYP51 in Candida albicans SC5314 assessed as lanosterol level at 1 ug/ml by GC-MS analysis (reference value: 1.7 %); design: scale not given: the % may be the effect or the level left; conditions: at 1 µg/mL
[15] = biological target: T1, Lanosterol 14-alpha demethylase; assay: Inhibition of CYP51 in Candida albicans SC5314 assessed as obtusifoliol level at 4 ug/ml by GC-MS analysis (reference value: 0 %); design: scale not given: the % may be the effect or the level left; conditions: at 4 µg/mL
[16] = biological target: T1, Lanosterol 14-alpha demethylase; assay: Inhibition of CYP51 in Candida albicans SC5314 assessed as ergosterol level at 8 ug/ml by GC-MS analysis (reference value: 98.3 %); design: scale not given: the % may be the effect or the level left; conditions: at 8 µg/mL
[17] = biological target: T1, Lanosterol 14-alpha demethylase; assay: Inhibition of CYP51 in Candida albicans SC5314 assessed as obtusifoliol level at 2 ug/ml by GC-MS analysis (reference value: 0 %); design: scale not given: the % may be the effect or the level left; conditions: at 2 µg/mL
[18] = biological target: T1, Lanosterol 14-alpha demethylase; assay: Inhibition of CYP51 in Candida albicans SC5314 assessed as lanosterol level at 4 ug/ml by GC-MS analysis (reference value: 1.7 %); design: scale not given: the % may be the effect or the level left; conditions: at 4 µg/mL
Candida albicans [19] = assay: Antifungal activity against Candida albicans CPCC 400616 assessed as inhibition of fungal growth; assay type: functional
Candida albicans [20] = assay: Antifungal activity against Candida albicans ATCC SC5314 assessed as inhibition of fungal growth; assay type: functional

T1 sequence (P10613 whole entry): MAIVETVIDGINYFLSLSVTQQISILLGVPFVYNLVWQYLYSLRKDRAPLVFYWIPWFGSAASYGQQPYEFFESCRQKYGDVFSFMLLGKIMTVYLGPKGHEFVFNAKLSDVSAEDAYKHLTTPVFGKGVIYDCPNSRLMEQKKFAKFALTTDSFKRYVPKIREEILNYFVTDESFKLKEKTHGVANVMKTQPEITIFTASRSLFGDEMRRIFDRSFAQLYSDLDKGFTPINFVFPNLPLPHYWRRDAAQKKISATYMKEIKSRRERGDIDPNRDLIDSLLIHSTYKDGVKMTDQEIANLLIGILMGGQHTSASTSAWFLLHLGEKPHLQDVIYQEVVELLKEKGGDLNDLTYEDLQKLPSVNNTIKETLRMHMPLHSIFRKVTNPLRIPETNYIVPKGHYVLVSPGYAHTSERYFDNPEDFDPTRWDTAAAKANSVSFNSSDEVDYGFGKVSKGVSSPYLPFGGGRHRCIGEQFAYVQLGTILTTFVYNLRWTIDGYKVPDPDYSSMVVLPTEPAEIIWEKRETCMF

Row | SMILES | MIC (Candida albicans [1]) [µg/mL] | MIC (Cryptococcus neoformans) [µg/mL] | MIC (Aspergillus fumigatus) [µg/mL] | MIC (Candida albicans [2]) [µg/mL] | MIC (Nakaseomyces glabratus) [µg/mL] | MIC (Candida parapsilosis) [µg/mL] | MIC (Candida tropicalis) [µg/mL] | MIC (Pichia kudriavzevii) [µg/mL] | further results
1 | OC(C[Se]Cc1ccccc1Cl)(Cn1cncn1)c1ccc(F)cc1F (stereo not given) | 0.02 | 0.25 | 2 | 0.125 | 0.5 | 0.125 | 0.25 | 0.125 | 
2 | Cc1cccc(C)c1[Se]CC(O)(Cn1cncn1)c1ccc(F)cc1F (stereo not given) | 0.5 | 0.25 | 4 | 0.06 | 1 | 0.25 | 1 | 0.125 | 
3 | OC(C[Se]c1ccc(F)cc1)(Cn1cncn1)c1ccc(F)cc1F (stereo not given) | 0.125 | 0.25 | 4 | 0.25 | 4 | 0.125 | 0.5 | 2 | 
4 | Cc1cc(C)cc([Se]CC(O)(Cn2cncn2)c2ccc(F)cc2F)c1 (stereo not given) | 0.03 | 0.03 | 8 | 0.06 | 4 | 0.25 | 0.06 | 2 | 
5 | Cc1cccc([Se]CC(O)(Cn2cncn2)c2ccc(F)cc2F)c1 (stereo not given) | 0.125 | 0.5 | 8 | 0.25 | 2 | 0.5 | 1 | 0.5 | 
6 | Cc1cccc(C[Se]CC(O)(Cn2cncn2)c2ccc(F)cc2F)c1 (stereo not given) | 0.06 | 1 | 4 | 0.125 | 4 | 0.25 | 1 | 2 | 
7 | COc1ccc([Se]CC(O)(Cn2cncn2)c2ccc(F)cc2F)cc1 (stereo not given) | 0.02 | 0.03 | 16 | 0.25 | 0.5 | 0.125 | 0.125 | 0.5 | IC50 (MDA-MB-231): 18.8 µM; Activity [3]: 64.3%; IC50 (PC-3): 26.7 µM; Activity [4]: 19.3%; Activity [5]: 65.7%; Activity [6]: 64.7%; Activity [7]: 1.4%; Activity [8]: 64.5%; Activity [9]: 10.1%; Activity [10]: 11.8%; Activity [11]: 3.6%; IC50 (HL-60): 12.1 µM; Activity [12]: 4.3%; Activity [13]: 18.2%; Activity [14]: 18.4%; Activity [15]: 11.2%; Activity [16]: 0.38%; Activity [17]: 10.8%; Activity [18]: 19.1%
8 | Cc1ccccc1[Se]CC(O)(Cn1cncn1)c1ccc(F)cc1F (stereo not given) | 0.03 | 0.25 | 16 | 1 | 0.5 | 0.125 | 1 | 0.5 | 
9 | CCc1ccccc1[Se]CC(O)(Cn1cncn1)c1ccc(F)cc1F (stereo not given) | 0.5 | 0.5 | 4 | 0.25 | 1 | 0.25 | 2 | 1 | 
10 | CCc1ccc([Se]CC(O)(Cn2cncn2)c2ccc(F)cc2F)cc1 (stereo not given) | 0.5 | 1 | 4 | 1 | 4 | 0.5 | 2 | 2 | 
11 | Cc1ccc(C)c([Se]CC(O)(Cn2cncn2)c2ccc(F)cc2F)c1 (stereo not given) | 1 | 0.25 | 2 | 1 | 2 | 0.5 | 0.5 | 1 | 
12 | Cc1ccccc1[Se]C(Cn1ccnc1)c1ccc(Cl)cc1 (stereo not given) |  |  |  |  |  |  |  |  | MFC (Candida albicans [19]): 0.25 µg/mL (≈ 0.665 µM); MIC (Candida albicans [19]): 0.02 µg/mL (≈ 0.0532 µM); MIC (Candida albicans [20]): 0.03 µg/mL (≈ 0.0798 µM)
13 | OC(C[Se]Cc1ccc(C(F)(F)F)cc1)(Cn1cncn1)c1ccc(F)cc1F (stereo not given) | 0.03 | 0.5 | 4 | 0.03 | 4 | 0.25 | 0.5 | 2 | 
14 | OC(C[Se]Cc1cccc(F)c1)(Cn1cncn1)c1ccc(F)cc1F (stereo not given) | 0.03 | 2 | 2 | 0.06 | 2 | 0.25 | 0.25 | 1 | 
15 | Cc1ccc(C[Se]CC(O)(Cn2cncn2)c2ccc(F)cc2F)cc1 (stereo not given) | 0.06 | 1 | 2 | 0.125 | 2 | 0.25 | 1 | 2 | 
16 | COc1cccc(C[Se]CC(O)(Cn2cncn2)c2ccc(F)cc2F)c1 (stereo not given) | 0.125 | 2 | 4 | 0.25 | 4 | 0.25 | 4 | 8 | 
17 | OC(C[Se]Cc1ccc(F)cc1)(Cn1cncn1)c1ccc(F)cc1F (stereo not given) | 0.03 | 2 | 2 | 0.06 | 1 | 0.25 | 0.5 | 1 | 
18 | COc1cccc([Se]CC(O)(Cn2cncn2)c2ccc(F)cc2F)c1 (stereo not given) | 0.02 | 1 | 8 | 0.5 | 4 | 0.125 | 2 | 2 | 
19 | COc1cccc2c1C(=O)c1c(O)c3c(c(O)c1C2=O)C[C@@](O)(C(=O)CO)C[C@@H]3O[C@H]1C[C@H](N)[C@H](O)[C@H](C)O1 [DOXORUBICIN] |  |  |  |  |  |  |  |  | IC50 (HL-60): < 0.125 µM
20 | OC(Cn1cncn1)(Cn1cncn1)c1ccc(F)cc1F [FLUCONAZOLE] |  |  |  |  |  |  | 4 |  | IC50 (MDA-MB-231): 19.2 µM; Activity [3]: 67.9%; IC50 (PC-3): 16.5 µM; Activity [4]: 14.9%; Activity [5]: 69.9%; Activity [6]: 68.7%; Activity [7]: 1.5%; Activity [8]: 69.6%; Activity [9]: 13.9%; Activity [10]: 14.1%; Activity [11]: 2.5%; IC50 (HL-60): 11.6 µM; Activity [12]: 3.9%; Activity [13]: 15.7%; Activity [14]: 14.3%; Activity [15]: 13.5%; Activity [16]: 1.1%; Activity [17]: 13.1%; Activity [18]: 15.4%
21 | Clc1ccc(COC(Cn2ccnc2)c2ccc(Cl)cc2Cl)c(Cl)c1 (stereo not given) [MICONAZOLE] |  |  |  |  |  |  | 1 |  | 
